From patent publication US11452727B2, “Combination therapy for treating cancer” (Epizyme, Inc., priority 2017, dated 2022)

How the values were obtained:
Experiment in all cases: In vitro combination study with tazemetostat, cell proliferation (Cell Titer Glo)
NCI-H1573 = settings: 7 days tazemetostat pre-treatment, 6 days co-treatment with second agent
NCI-H2110 = settings: 7 days tazemetostat pre-treatment, 6 days co-treatment with second agent
NCI-H1993 = settings: 7 days tazemetostat pre-treatment, 6 days co-treatment with second agent
A549 = settings: 7 days tazemetostat pre-treatment, 6 days co-treatment with second agent
NCI-H838 = settings: 7 days tazemetostat pre-treatment, 6 days co-treatment with second agent
NCI-H460 = settings: 7 days tazemetostat pre-treatment, 6 days co-treatment with second agent
Experimental: (§1) Initial proliferation studies were performed to determine the IC50 of tazemetostat in each cell line. For the screen, tazemetostat was used at concentrations bracketed around the IC50 value. If 50% inhibitory concentration was not reached then tazemetostat was tested starting at 10 μM.
(§2) In order to study the effect of dual combination of tazemetostat and a second agent on cell proliferation, cells in log-linear phase growth rate were pre-treated with various concentrations of tazemetostat or DMSO for 7 days in flasks, plated in 384-well plates in the absence of compounds and co-treated on day 8 with tazemetostat or DMSO and the second agent serially diluted for additional 6 days (as depicted in FIG. 1). On day 15, plates were developed for endpoint analysis using Cell Titer Glo to measure ATP content, which was used as an indicator of cell viability. DMSO concentration was kept constant throughout the assay at 0.15% v/v.
(§3) All cell lines were obtained from American Type Culture Collection (ATCC; Rockville, Md.). […] A427, Calu-3, Calu-6 cell lines were cultured in EMEM+10% Fetal bovine serum (FBS)+1% v/v Penicillin/Streptomycin (P/S).

NCI-H2122 = settings: 7 days tazemetostat pre-treatment, 6 days co-treatment with second agent
Calu-6 = settings: 7 days tazemetostat pre-treatment, 6 days co-treatment with second agent
Experimental: as §1, §2

Calu-3 = settings: 7 days tazemetostat pre-treatment, 6 days co-treatment with second agent
HCC827 = settings: 7 days tazemetostat pre-treatment, 6 days co-treatment with second agent
NCI-H1299 = settings: 7 days tazemetostat pre-treatment, 6 days co-treatment with second agent
Experimental: as §1, §2

A427 = settings: for combinatorial effect with tazemetostat (Loewe volume class): A427, 7 days tazemetostat pre-treatment, 6 days co-treatment with second agent
NCI-H23 = settings: 7 days tazemetostat pre-treatment, 6 days co-treatment with second agent
NCI-H2030 = settings: 7 days tazemetostat pre-treatment, 6 days co-treatment with second agent
Experimental: as §1, §2

NCI-H1703 = settings: 7 days tazemetostat pre-treatment, 6 days co-treatment with second agent
NCI-H1793 = settings: 7 days tazemetostat pre-treatment, 6 days co-treatment with second agent
NCI-H661 = settings: 7 days tazemetostat pre-treatment, 6 days co-treatment with second agent
Experimental: as §1, §2, §3

NCI-H522 = settings: 7 days tazemetostat pre-treatment, 6 days co-treatment with second agent
Experimental: as §1, §2

Row | Structure (SMILES) | combinatorial effect with tazemetostat (Loewe volume class) (NCI-H1573) | combinatorial effect with tazemetostat (Loewe volume class) (NCI-H2110) | combinatorial effect with tazemetostat (Loewe volume class) (NCI-H1993) | combinatorial effect with tazemetostat (Loewe volume class) (A549) | combinatorial effect with tazemetostat (Loewe volume class) (NCI-H838) | combinatorial effect with tazemetostat (Loewe volume class) (NCI-H460) | combinatorial effect with tazemetostat (Loewe volume class) (NCI-H2122) | combinatorial effect with tazemetostat (Loewe volume class) (Calu-6) | combinatorial effect with tazemetostat (Loewe volume class) (Calu-3) | combinatorial effect with tazemetostat (Loewe volume class) (HCC827) | combinatorial effect with tazemetostat (Loewe volume class) (NCI-H1299) | combinatorial effect with tazemetostat (Loewe volume class) (A427) | combinatorial effect with tazemetostat (Loewe volume class) (NCI-H23) | combinatorial effect with tazemetostat (Loewe volume class) (NCI-H2030) | combinatorial effect with tazemetostat (Loewe volume class) (NCI-H1703) | combinatorial effect with tazemetostat (Loewe volume class) (NCI-H1793) | combinatorial effect with tazemetostat (Loewe volume class) (NCI-H661) | combinatorial effect with tazemetostat (Loewe volume class) (NCI-H522) | synergy with an EZH2 inhibitor (tazemetostat) (A427; A427 cells, dose matrix, Loewe excess matrix, isobologram (FIG. 2-5))
1 | CCN1CCN(Cc2ccc(Nc3ncc(F)c(-c4cc(F)c5nc(C)n(C(C)C)c5c4)n3)nc2)CC1 [Abemaciclib, abemaciclib] | Add. (A value between −1 and 1 denoted “additivity”) | Add. (A value between −1 and 1 denoted “additivity”) | Syn. (Loewe volumes greater than 1 denoted “synergy”) | Add. (A value between −1 and 1 denoted “additivity”) | Add. (A value between −1 and 1 denoted “additivity”) | Add. (A value between −1 and 1 denoted “additivity”) | Anta. (volumes <−1 denoted “antagonism”) | Syn. (Loewe volumes greater than 1 denoted “synergy”) | Add. (A value between −1 and 1 denoted “additivity”) | Add. (A value between −1 and 1 denoted “additivity”) | Anta. (volumes <−1 denoted “antagonism”) | Syn. (Loewe volumes greater than 1 denoted “synergy”) | Add. (A value between −1 and 1 denoted “additivity”) | Syn. (Loewe volumes greater than 1 denoted “synergy”) | Add. (A value between −1 and 1 denoted “additivity”) | Syn. (Loewe volumes greater than 1 denoted “synergy”) | Syn. (Loewe volumes greater than 1 denoted “synergy”) | Add. (A value between −1 and 1 denoted “additivity”) | –
2 | Nc1cc(C(F)(F)F)c(-c2cc(N3CCOCC3)nc(N3CCOCC3)n2)cn1 [BKM-120] | Add. (A value between −1 and 1 denoted “additivity”) | Add. (A value between −1 and 1 denoted “additivity”) | Syn. (Loewe volumes greater than 1 denoted “synergy”) | Add. (A value between −1 and 1 denoted “additivity”) | Syn. (Loewe volumes greater than 1 denoted “synergy”) | Add. (A value between −1 and 1 denoted “additivity”) | Add. (A value between −1 and 1 denoted “additivity”) | Add. (A value between −1 and 1 denoted “additivity”) | Add. (A value between −1 and 1 denoted “additivity”) | Add. (A value between −1 and 1 denoted “additivity”) | Add. (A value between −1 and 1 denoted “additivity”) | Syn. (Loewe volumes greater than 1 denoted “synergy”) | Syn. (Loewe volumes greater than 1 denoted “synergy”) | Add. (A value between −1 and 1 denoted “additivity”) | Add. (A value between −1 and 1 denoted “additivity”) | Syn. (Loewe volumes greater than 1 denoted “synergy”) | Syn. (Loewe volumes greater than 1 denoted “synergy”) | Add. (A value between −1 and 1 denoted “additivity”) | –
3 | COc1cc(N2CCC(N3CCN(C)CC3)CC2)ccc1Nc1ncc(Cl)c(Nc2ccccc2P(C)(C)=O)n1 [Brigatinib, brigatinib] | Syn. (Loewe volumes greater than 1 denoted “synergy”) | Syn. (Loewe volumes greater than 1 denoted “synergy”) | Syn. (Loewe volumes greater than 1 denoted “synergy”) | Syn. (Loewe volumes greater than 1 denoted “synergy”) | Syn. (Loewe volumes greater than 1 denoted “synergy”) | Syn. (Loewe volumes greater than 1 denoted “synergy”) | Add. (A value between −1 and 1 denoted “additivity”) | Add. (A value between −1 and 1 denoted “additivity”) | Syn. (Loewe volumes greater than 1 denoted “synergy”) | – | Add. (A value between −1 and 1 denoted “additivity”) | Syn. (Loewe volumes greater than 1 denoted “synergy”) | Syn. (Loewe volumes greater than 1 denoted “synergy”) | Syn. (Loewe volumes greater than 1 denoted “synergy”) | Syn. (Loewe volumes greater than 1 denoted “synergy”) | Syn. (Loewe volumes greater than 1 denoted “synergy”) | Add. (A value between −1 and 1 denoted “additivity”) | Syn. (Loewe volumes greater than 1 denoted “synergy”) | –
4 | Cc1cc(Nc2ncc(Cl)c(Nc3ccccc3S(=O)(=O)C(C)C)n2)c(OC(C)C)cc1C1CCNCC1 [Ceritinib, ceritinib] | Syn. (Loewe volumes greater than 1 denoted “synergy”) | Add. (A value between −1 and 1 denoted “additivity”) | Syn. (Loewe volumes greater than 1 denoted “synergy”) | Add. (A value between −1 and 1 denoted “additivity”) | Syn. (Loewe volumes greater than 1 denoted “synergy”) | Add. (A value between −1 and 1 denoted “additivity”) | Anta. (volumes <−1 denoted “antagonism”) | Add. (A value between −1 and 1 denoted “additivity”) | Add. (A value between −1 and 1 denoted “additivity”) | Add. (A value between −1 and 1 denoted “additivity”) | Add. (A value between −1 and 1 denoted “additivity”) | Syn. (Loewe volumes greater than 1 denoted “synergy”) | Add. (A value between −1 and 1 denoted “additivity”) | Add. (A value between −1 and 1 denoted “additivity”) | Add. (A value between −1 and 1 denoted “additivity”) | Add. (A value between −1 and 1 denoted “additivity”) | Syn. (Loewe volumes greater than 1 denoted “synergy”) | Add. (A value between −1 and 1 denoted “additivity”) | synergy
